For the assay, the target named is Active Human ERK2 (hERK2) (Homo sapiens (Human), UniProt P28482). Nature of the assay: Active Human ERK2 (hERK2) Activity Assay (IMAP-FP). In kind it is biochemical. Put shortly: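 Reaction contains 0.5 nM activated hERK2, 900 nM unlabeled plus 80 nM labeled peptide and 30 μM ATP, run 60 min. Quenched with IMAP binding beads in buffer with 24 mM NaCl; fluorescence polarization read after 60 min binding equilibration.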

[1] abbreviates: phosphorylated active hERK2, 30 μM ATP, average, read-out: ERK 2 Human average IC50.
Setting [2] is: read-out: AERK2 IC50 (Active human ERK2 Activity Assay).

The structures appear in SMILES notation. Read-outs that look alike come from different tables or passages of the source.

The text below walks through data of patent publication US9023865B2, “Compounds that are ERK inhibitors” (Merck Sharp & Dohme Corp., priority 2011, dated 2015).

One may read the IC50 as the concentration that gives 50% inhibition.

Chain of Active Human ERK2 (hERK2) (P28482 whole entry): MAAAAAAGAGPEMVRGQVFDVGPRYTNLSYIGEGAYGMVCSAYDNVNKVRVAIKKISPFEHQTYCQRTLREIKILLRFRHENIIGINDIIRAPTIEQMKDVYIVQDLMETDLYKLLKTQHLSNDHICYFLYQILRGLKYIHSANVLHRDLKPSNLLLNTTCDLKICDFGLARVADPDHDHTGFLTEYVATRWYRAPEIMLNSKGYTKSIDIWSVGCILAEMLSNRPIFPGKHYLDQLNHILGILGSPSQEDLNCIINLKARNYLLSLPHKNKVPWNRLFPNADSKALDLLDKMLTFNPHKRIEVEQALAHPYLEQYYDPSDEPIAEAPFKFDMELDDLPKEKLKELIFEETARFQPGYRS

In the case of `Cc1cc(-c2n[nH]c3cc(NC(=O)N[C@H]4CN(C)C[C@@H]4c4ccccc4C)ncc23)ccn1` [Example 207], under setting [1], the IC50 is 0.537 nM.

For `C[C@@H](NC(=O)Nc1cc2[nH]nc(CC#N)c2cn1)c1ccccc1` [Example 559, (R)-1-(3-(cyanomethyl)-1H-pyrazolo[4,3-c]pyridin-6-yl)-3-(1-phenylethyl)urea], the half-maximal inhibitory concentration (IC50) under setting [1] was determined as 14.5 nM.

Take `Cc1cc(-c2n[nH]c3cc(NC(=O)NCc4cc(C)on4)ncc23)ccn1` [Example 470]: the IC50 under setting [1] was 4.12 nM. On the same count and under the same terms, to `Cc1cc(-c2n[nH]c3cc(NC(=O)NCc4ccc(F)cc4C(F)(F)F)ncc23)ccn1` [Example 512] belongs 2.94 nM. Take `Cc1cc(-c2n[nH]c3cc(NC(=O)N[C@@H]4COC[C@H]4c4ccccc4)ncc23)ccn1` [Example 580]: under setting [1], the concentration for half-maximal inhibition (IC50) was found to be 0.193 nM. Take `COCCNC(=O)Nc1cc2[nH]nc(-c3cc(C)nc(OC)c3)c2cn1` [Example 631]: the IC50 under setting [1] came to 17.4 nM. The same measure, in the same setting: for `Cc1cc(-c2n[nH]c3cc(NC(=O)NCc4cccc(-c5ccccc5)c4)ncc23)ccn1` [Example 333] the value was 3.38 nM; for `C[C@@H](NC(=O)Nc1cc2[nH]nc(C3=CNCN=C3)c2cn1)c1ccc(F)cc1` [Example 663], 9.13 nM; for `O=C(NCc1ccc(F)cc1)Nc1cc2[nH]nc(C3CC3)c2cn1` [Example 140, 1-(3-cyclopropyl-1H-pyrazolo[4,3-c]pyridin-6-yl)-3-(4-fluorobenzyl)urea], 23.5 nM. For `C[C@@H](NC(=O)Nc1cc2[nH]nc(C(=O)NCc3nc4ccncc4[nH]3)c2cn1)c1ccccc1` [Example 117], under setting [1], the IC50 came to 5.47 nM. In the case of `C[C@@H](NC(=O)Nc1cc2[nH]nc(C3CC3)c2cn1)c1ccc(F)c(Cl)c1` [Example 82, 1-[(1R)-1-(3-chloro-4-fluorophenyl)ethyl]-3-(3-cyclopropyl-1H-pyrazolo[4,3-c]pyridin-6-yl)urea], the half-inhibitory concentration (IC50) under setting [1] turned out to be 10.8 nM. On to `C[C@@H](NC(=O)Nc1cc2[nH]nc(C3CC3)c2cn1)c1ccc(Cl)cc1` [Example 150], for which, under setting [1], the IC50 came to 10.4 nM. On to `C[C@@H](NC(=O)Nc1cc2[nH]nc(-c3cnn(C)c3)c2cn1)c1ccccc1` [Example 29, 1-[3-(1-methyl-1H-pyrazol-4-yl)-1H-pyrazolo[4,3-c]pyridin-6-yl]-3-[(1R)-1-phenylethyl]urea], for which the concentration for half-maximal inhibition (IC50) is 0.334 nM under setting [1] and 0.2 to 1.7 nM under setting [2].

`Cc1cc(-c2n[nH]c3cc(NC(=O)NC(CO)c4cccnc4)ncc23)ccn1` (stereo not drawn) [Example 336]: the concentration for half-maximal inhibition (IC50) under setting [1] came to 1.03 nM. In the case of `COCCNC(=O)Nc1ncc2c(-c3ccnc(C4CC4)c3)n[nH]c2c1F` [Example 610], the IC50 under setting [1] was 3.12 nM. Take `Cc1cc(-c2n[nH]c3cc(NC(=O)N[C@H]4CN(C)C[C@@H]4c4ccccc4C)ncc23)ccn1` [Example 216, 1-((3R,4S)-1-methyl-4-(o-tolyl)pyrrolidin-3-yl)-3-(3-(2-methylpyridin-4-yl)-1H-pyrazolo[4,3-e]pyridin-6-yl)urea]: the concentration for half-maximal inhibition (IC50) under setting [1] was found to be 66.3 nM. As to `Cc1cc(-c2n[nH]c3cc(NC(=O)N[C@H]4CN(C)C[C@@H]4C4CC4)ncc23)ccn1` [Example 209], the half-maximal inhibitory concentration (IC50) under setting [1] was 8.27 nM. With `Cc1cc(-c2n[nH]c3cc(NC(=O)N[C@H]4CN(C)C[C@@H]4c4ccccc4F)ncc23)ccn1` [Example 183], under setting [1], the IC50 came out at 0.662 nM.

As to `C[C@@H](NC(=O)Nc1ncc2c(-c3ccnc(F)c3)n[nH]c2c1F)c1ccccc1` [Example 539], under setting [1], the half-inhibitory concentration (IC50) is 0.728 nM. `C[C@@H](NC(=O)Nc1cc2[nH]nc(-c3ccc4c(c3)OCCO4)c2cn1)c1ccccc1` [Example 88, 1-[3-(2,3-dihydro-1,4-benzodioxin-6-yl)-1H-pyrazolo[4,3-c]pyridin-6-yl]-3-[(1R)-1-phenylethyl]urea]: the concentration for half-maximal inhibition (IC50) by setting is: under setting [1], 1.16 nM; under setting [2], 0.2 to 1.7 nM. For the compound `C[C@@H](NC(=O)Nc1cc2[nH]nc(-c3ccnc(F)c3)c2cn1)c1ccccc1` [Example 636], under setting [1], the IC50 was 0.251 nM. Consider `COC[C@@H](NC(=O)Nc1cc2[nH]nc(-c3ccc(C(F)(F)F)nc3)c2cn1)c1ccc(F)cc1` [Example 305], for which the half-maximal inhibitory concentration (IC50) under setting [1] was 24.7 nM. On to `Cc1cc(-c2n[nH]c3cc(NC(=O)NCCC4CCOC4)ncc23)ccn1` (stereo not drawn) [Example 387], for which, under setting [1], the IC50 turned out to be 4.42 nM. For `COC(=O)[C@H](C)NC(=O)Nc1cc2[nH]nc(-c3ccnc(C)c3)c2cn1` [Example 455], the IC50 under setting [1] came out at 520 nM.

On to `COC[C@@H](NC(=O)Nc1cc2[nH]nc(-c3cnc(OC)nc3)c2cn1)c1ccccc1` [Example 314], for which the concentration for half-maximal inhibition (IC50) under setting [1] was 0.88 nM. `Cc1cc(-c2n[nH]c3cc(NC(=O)NC(CCN4CCCC4)c4ccncc4)ncc23)ccn1` (stereo not drawn) [Example 378]: the IC50 under setting [1] stood at 55.6 nM. As to `Cc1cc(-c2n[nH]c3cc(NC(=O)NCc4ccc5c(c4)CNC5=O)ncc23)ccn1` [Example 369], the IC50 under setting [1] worked out at 1.41 nM. Still for that read-out and setting: to `Cc1cc(-c2n[nH]c3cc(NC(=O)NCc4cnoc4)ncc23)ccn1` [Example 437] belongs 1.95 nM.

Turning to `C[C@@H](NC(=O)Nc1cc2[nH]nc(C(N)C(F)(F)F)c2cn1)c1ccccc1` (stereo partly drawn) [Example 563, 1-(3-(1-amino-2,2,2-trifluoroethyl)-1H-pyrazolo[4,3-c]pyridin-6-yl)-3-((R)-1-phenylethyl)urea], the IC50 under setting [1] was 251 nM. As to `Cc1cc(-c2n[nH]c3cc(NC(=O)N[C@@H](c4ccccc4)[C@H]4CCCO4)ncc23)ccn1` [Example 553], under setting [1], the half-inhibitory concentration (IC50) was found to be 0.26 nM. The same measure, in the same setting: to `C[C@@H](NC(=O)Nc1cc2[nH]nc(C(F)F)c2cn1)c1ccccn1` [Example 678] belongs 765 nM. For the compound `C[C@@H](NC(=O)Nc1cc2[nH]nc(-c3ccc(F)cc3)c2cn1)c1ccccc1` [Example 30, 1-[3-(4-fluorophenyl)-1H-pyrazolo[4,3-c]pyridin-6-yl]-3-[(1R)-1-phenylethyl]urea], the half-inhibitory concentration (IC50) is 0.85 nM under setting [1] and 0.2 to 1.7 nM under setting [2].

As for `COCC(NC(=O)Nc1cc2[nH]nc(-c3ccnc(C)c3)c2cn1)c1ccc(C(F)(F)F)cn1` (stereo not drawn) [Example 240], the IC50 under setting [1] came out at 24.2 nM.

Take `Cc1cc(-c2n[nH]c3cc(NC(=O)NC(C)c4ncccc4C)ncc23)ccn1` (stereo not drawn) [Example 349]: the IC50 under setting [1] came to 6.57 nM. Turning to `Cc1cc(-c2n[nH]c3c(F)c(NC(=O)NCc4ccccc4)ncc23)ccn1` [Example 536], the IC50 under setting [1] stood at 1.14 nM. In the case of `O=C(Nc1cc2[nH]nc(C(F)F)c2cn1)NC1Cc2ccccc2C1O` (stereo not drawn) [Example 696], under setting [1], the IC50 was found to be 175 nM.

Turning to `Cc1cc(-c2n[nH]c3cc(NC(=O)NC4CCCC(Oc5cccc(F)c5)C4)ncc23)ccn1` (stereo not drawn) [Example 659], the half-maximal inhibitory concentration (IC50) under setting [1] stood at 51.9 nM. `COC[C@H](NC(=O)Nc1cc2[nH]nc(-c3ccc(F)cc3)c2cn1)c1ccccn1` [Example 486]: the IC50 under setting [1] was determined as 23.5 nM. As to `Cc1cc(-c2n[nH]c3cc(NC(=O)NC4(c5ccc(Cl)cc5)CC4)ncc23)ccn1` [Example 85, 1-[1-(4-chlorophenyl)cyclopropyl]-3-[3-(2-methylpyridin-4-yl)-1H-pyrazolo[4,3-c]pyridin-6-yl]urea], the concentration for half-maximal inhibition (IC50) under setting [1] stood at 29.8 nM.

`C[C@@H](NC(=O)Nc1cc2[nH]nc(C(C)(F)F)c2cn1)c1ccc(F)cc1` [Example 665]: under setting [1], the half-inhibitory concentration (IC50) is 193 nM. For `Cc1cc(-c2n[nH]c3cc(NC(=O)NCCc4cn[nH]c4)ncc23)ccn1` [Example 394], the 50% inhibitory concentration (IC50) under setting [1] stood at 0.85 nM. The same measure, in the same setting: for `Cc1cc(-c2n[nH]c3cc(NC(=O)NCC4CC(C)(C)OC(C)(C)C4)ncc23)ccn1` [Example 370] the value was 1.45 nM; for `COCCNC(=O)Nc1cc2[nH]nc(-c3ccc4cn(C)nc4c3)c2cn1` [Example 625], 13.6 nM.

On to `Cc1cc(-c2n[nH]c3cc(NC(=O)NC(C)CO)ncc23)ccn1` (stereo not drawn) [Example 200], for which the IC50 under setting [1] came to 25.6 nM.

`Cc1cc(-c2n[nH]c3c(Br)c(NC(=O)N[C@H](C)c4ccccc4)ncc23)ccn1` [Example 79, 1-[7-bromo-3-(2-methylpyridin-4-yl)-1H-pyrazolo[4,3-c]pyridin-6-yl]-3-[(1R)-1-phenylethyl]urea]: under setting [1], the half-inhibitory concentration (IC50) was found to be 34.5 nM. In the case of `Cc1cc(-c2n[nH]c3cc(NC(=O)NCc4ccc(F)c(Cl)c4)ncc23)ccn1` [Example 56, 1-(3-chloro-4-fluorobenzyl)-3-[3-(2-methylpyridin-4-yl)-1H-pyrazolo[4,3-c]pyridin-6-yl]urea], the 50% inhibitory concentration (IC50) under setting [1] came to 0.411 nM and the half-maximal inhibitory concentration (IC50) under setting [2] was 0.2 to 1.7 nM. On to `Cc1cc(-c2n[nH]c3cc(NC(=O)NCc4c(C)cccc4Cl)ncc23)ccn1` [Example 444], for which the half-maximal inhibitory concentration (IC50) under setting [1] came out at 1.12 nM. For `Cc1cc(-c2n[nH]c3cc(NC(=O)NCC4(C)CCCO4)ncc23)ccn1` (stereo not drawn) [Example 463], under setting [1], the half-inhibitory concentration (IC50) stood at 1.58 nM. As for `Cc1cc(-c2n[nH]c3cc(NC(=O)NCc4ncc[nH]4)ncc23)ccn1` [Example 427], the concentration for half-maximal inhibition (IC50) under setting [1] came to 1.36 nM.

For `Cc1cc(-c2n[nH]c3cc(NC(=O)N[C@H]4CN(C)C[C@@H]4c4ccc(F)nc4)ncc23)ccn1` [Example 179], under setting [1], the IC50 came out at 1.45 nM. With `Cc1cc(-c2n[nH]c3cc(NC(=O)NC4(c5ccccn5)CCCC4)ncc23)ccn1` [Example 358], the 50% inhibitory concentration (IC50) under setting [1] is 137 nM. On the same count and under the same terms, for `Cc1cc(-c2n[nH]c3cc(NC(=O)NC4CCCOc5ccccc54)ncc23)no1` (stereo not drawn) [Example 690] the value was 240 nM; for `Cc1cc(-c2n[nH]c3cc(NC(=O)NCC4COCCO4)ncc23)ccn1` (stereo not drawn) [Example 464], 3.57 nM.

Regarding `Cc1cc(-c2n[nH]c3cc(NC(=O)NC4c5ccccc5OC(C)(C)C4O)ncc23)ccn1` (stereo not drawn) [Example 530], the IC50 under setting [1] is 53.5 nM. Take `CN1CC[C@@H](CNC(=O)Nc2cc3[nH]nc(-c4ccc(F)cc4)c3cn2)C1` [Example 321]: the half-maximal inhibitory concentration (IC50) under setting [1] turned out to be 0.986 nM. For `C[C@@H](NC(=O)Nc1cc2[nH]nc(-c3cncnc3)c2cn1)c1ccc(F)cc1` [Example 671], the concentration for half-maximal inhibition (IC50) under setting [1] stood at 2.33 nM. As to `CCc1c(NC(=O)N[C@H](C)c2ccccc2)ncc2c(-c3ccnc(C)c3)n[nH]c12` [Example 175], the IC50 under setting [1] worked out at 6.68 nM. Consider `Cc1cc(-c2n[nH]c3cc(NC(=O)NC(C)c4ccno4)ncc23)ccn1` (stereo not drawn) [Example 497], for which the half-maximal inhibitory concentration (IC50) under setting [1] is 1.53 nM. On to `Cc1cc(-c2n[nH]c3cc(NC(=O)NC4CCc5[nH]ncc5C4)ncc23)ccn1` (stereo not drawn) [Example 506], for which, under setting [1], the IC50 turned out to be 0.805 nM.
